Patent US12152139B2, “Composition, film, optical filter, laminate, solid-state imaging element, image display device, and infrared sensor” (FUJIFILM Corporation, priority 2018, dated 2024)
Values after ≈ are worked out from the molar mass of the structure shown.

Experiment: Solubility in propylene glycol methyl ether acetate
Type: physicochemical
Conditions: organic solvent or mixture, thermodynamic from solid, at 25° C., read-out: solubility in propylene glycol methyl ether acetate (compound (1))
Procedure: <Measurement of Solubility of Near Infrared Absorbing Pigment and Compound (1)>
Under atmospheric pressure, 99 to 101 g of a sample (precisely weighed value is defined as X g) was added to 1 L of propylene glycol methyl ether acetate at 25° C., and the mixture was stirred for 30 minutes. Next, the mixture was allowed to stand for 5 minutes and filtered, and the […] was dried under reduced pressure at 80° C. for 2 hours and weighed precisely (precisely weighed value is defined as Y g). Solubility of the sample dissolved in propylene glycol methyl ether acetate was calculated from the following expression. Solubility (g/L)=X−Y <Method for Quantifying Amine Compound in Composition>

solubility at 30 min [µg/mL] | SMILES
≥ 500 | O=c1c2ccccc2[nH]c2cc3c(=O)c4ccccc4n(CCCCS(=O)(=O)O)c3cc12 [Example P3]
100 to 500 (≈ 105 to 524 µM) | O=C1C(=C2C(O)=CC(N(c3ccc(S(=O)(=O)O)cc3)c3ccc(S(=O)(=O)O)cc3)C=C2O)C(O)=C1c1c(O)cc(N(c2ccc(S(=O)(=O)O)cc2)c2ccc(S(=O)(=O)O)cc2)cc1O (centres unmarked) [Example P2]
